Among the data in US20090118282A1, “Compounds and methods for treatment of amyloid-beta-peptide related disorders” (priority 2005, published 2009) are IC50 values, retold here.

Each structure is given as a SMILES string. Structures can show the parent of a compound that is named as a salt.

The experiment has as its system Aβ 40 production in HEK-293 cells overexpressing swAPP751. Briefly: Inhibition of Aβ 40 production in HEK-293 cells overexpressing swAPP751 (sandwich ELISA). It is filed as cell-based. Particulars: Homo sapiens, HEK293, 7 hours incubation. As for the experimental part: An exemplary assay for the analysis of inhibition of beta-secretase activity utilizes the human embryonic kidney cell line HEK-293 (ATCC Accession No. CRL-1573) stably transfected with APP751 containing the naturally occurring double mutation […] to Asn651Leu652 (numbered for APP751), commonly called the “Swedish mutation” and shown to overproduce Aβ 40 and Aβ 42 (Citron et. al., 1992, Nature 360:672-674). The cells were plated in 10 cm plates and in Dulbecco's Modified Eagle's medium (DMEM, Sigma D-6546) containing 10% fetal bovine serum. After cells are established (3 days post plating), cells are incubated in the presence/absence of the inhibitory compound (diluted in DMSO) at the desired concentration, generally from 0.2 to 20 μM, and with a final concentration of DMSO of 0.1%. Cells were incubated for 7 hours in the presence of phosphoramidon (1 μM) (Sigma). Media and cell lysates were collected, centrifuged, normalized to total protein and assayed for Aβ 40 and Aβ 42 by sandwich ELISA according to the manufacturer's instructions (Biosource International). For Aβ 42 detection, samples are concentrated on YM3 Microcon columns (Millipore). […] Aβ levels are determined by the difference between the Aβ values for the compound treatment and baseline periods. Dose response curves are plotted as percent inhibition versus compound concentration.
On the technique in general: ELISA stands for enzyme-linked immunosorbent assay.

In turn, `COc1cc(CN2CCOCC2)ccc1OCCCCCOc1ccnc2cc(Cl)ccc12` [Compound 22, 4-(5-(2-Methoxy-4-(morpholinomethyl)phenoxy)pentyloxy)-7-chloroquinoline dihydrochloride] returned an IC50 of 9.3 µM.
Under `OCc1ccc(OCCCCCSc2ccnc3cc(C(F)(F)F)ccc23)cc1` [Compound 12, (4-(5-(7-(trifluoromethyl)quinolin-4-ylthio)pentyloxy)phenyl)methanol hydrochloride] stands 7.3 µM.
Under `COc1cc(CN2CCOCC2)ccc1OCCCCCSc1ccnc2cc(C(F)(F)F)ccc12` [Compound 24, 4-(5-(2-methoxy-4-(morpholinomethyl)phenoxy)pentylthio)-7-(trifluoromethyl)quinoline dihydrochloride] stands 9.9 µM.
With `CCn1ncc2c(OCCCCCSc3ccnc4cc(C(F)(F)F)ccc34)ccnc21` [Compound 19, 4-(5-(1-Ethyl-1H-pyrazolo[3,4-b]pyridin-4-yloxy)pentylthio)-7-(trifluoromethyl)quinoline dihydrochloride] the figure was 15.5 µM.
As for `O=[N+]([O-])c1cc(CN2CCCCC2)ccc1OCCCCCSc1ccnc2cc(C(F)(F)F)ccc12` [Compound 11, 4-(5-(2-nitro-4-((piperidin-1-yl)methyl)phenoxy)pentylthio)-7-(trifluoromethyl)quinoline dihydrochloride], inhibition was half-maximal at 2.45 µM (IC50).
With `FC(F)(F)c1ccc2c(SCCCCCOc3ccc(CN4CCCCC4)cc3Cl)ccnc2c1` [Compound 10, 4-(5-(2-Chloro-4-((piperidin-1-yl)methyl)phenoxy)pentylthio)-7-(trifluoromethyl)quinoline dihydrochloride] the figure was 8.5 µM.
With `FC(F)(F)c1ccc2c(SCCCCCOc3ccc(CN4CCNCC4)cc3)ccnc2c1` [Compound 1, 4-(5-(4-((piperazin-1-yl)methyl)phenoxy)pentylthio)-7-(trifluoromethyl)quinoline trihydrochloride] the figure was 11.6 µM.
With `CC(C)(C)C(=O)N1CCN(Cc2ccc(OCCCCCSc3ccnc4cc(C(F)(F)F)ccc34)cc2)CC1` [Compound 3, 1-(4-((4-(5-(7-(trifluoromethyl)quinolin-4-ylthio)pentyloxy)phenyl)methyl)piperazin-1-yl)-2,2-dimethylpropan-1-one dihydrochloride] the figure was 1.9 µM; with `FC(F)(F)c1ccc2c(SCCCCCOc3ccc(CN4CCOCC4)cc3)ccnc2c1` [Compound 8, 4-(5-(4-(morpholinomethyl)phenoxy)pentylthio)-7-(trifluoromethyl)quinoline dihydrochloride], 5.13 µM.
In turn, `CCOC(=O)[C@H](Cc1ccc(OCCCCCSc2ccnc3cc(C(F)(F)F)ccc23)cc1)NC(C)=O` [Compound 14, (S)-ethyl 3-(4-(5-(7-(trifluoromethyl)quinolin-4-ylthio)pentyloxy)phenyl)-2-acetamidopropanoate hydrochloride] had an IC50 of 0.72 µM.
With `CCN(CC)C(=O)N1CCN(Cc2ccc(OCCCCCSc3ccnc4cc(C(F)(F)F)ccc34)cc2)CC1` [Compound 2, 4-((4-(5-(7-(trifluoromethyl)quinolin-4-ylthio)pentyloxy)phenyl)methyl)-N,N-diethylpiperazine-1-carboxamide dihydrochloride] the figure was 2.4 µM; with `Nc1cc(CN2CCCCC2)ccc1OCCCCCSc1ccnc2cc(C(F)(F)F)ccc12` [Compound 13, 2-(5-(7-(Trifluoromethyl)quinolin-4-ylthio)pentyloxy)-5-((piperidin-1-yl)methyl)benzenamine trihydrochloride], 8.26 µM.
With `Clc1ccc2c(OCCCCCOc3ccc(CN4CCOCC4)cc3)ccnc2c1` [Compound 23, 4-(5-(4-(morpholinomethyl)phenoxy)pentyloxy)-7-chloroquinoline dihydrochloride] the figure was 2.5 µM; with `FC(F)(F)c1ccc2c(SCCCCCOc3ccc(CN4CCCCC4)cc3)ccnc2c1` [Compound 5, 4-(5-(4-((piperidin-1-yl)methyl)phenoxy)pentylthio)-7-(trifluoromethyl)quinoline dihydrochloride], 5.16 µM.

What is called IC50 is the concentration needed to halve the response being measured.
